These results are taken from patent US20250129328A1, “AN ISOLATED S. SALIVARIUS STRAIN AND ITS USE AS AN ANTIMICROBIAL PRODUCING PROBIOTIC” (priority 2021, published 2025).

Ends that are not written are not given here.

One experiment deals with F. nucleatum DSM15643. Kind of experiment: Well diffusion assay (WDA) of purified nisin peptides. It counts as cell-based, Fusobacterium nucleatum. Also on record: dose or concentration left out as unconfirmed.
A further experiment relates to L. bulgaricus DPC5383. The experiment is described as follows: Well diffusion assay (WDA) of purified nisin peptides and CFS. The class given is cell-based, Lactobacillus delbrueckii ssp. bulgaricus. The following applies: semi-pure nisin G and pure nisin A. Also on record: dose or concentration left out as unconfirmed. How it is done:
The culture was centrifuged at 7,871 g for 20 minutes and cells separated from the supernatant. The cell pellet was resuspended in 300 ml of 70% 2 propanol 0.1% TFA (IPA) and stirred at room temperature for 3-4 hours. The resulting suspension was centrifuged again, and the supernatant retained for purification of the antimicrobial. […] The IPA was removed by rotary evaporation and the sample applied to a 12 ml, 2 g Strata-E C18 SPE column pre-equilibrated (Phenomenex, Cheshire, UK) with methanol and water. The column was washed with 24 ml 30% ethanol and then 24 ml 70% 2-propanol 0.1% TFA. […] The IPA was removed from the C18 SPE IPA eluent by rotary evaporation (Buchi Labortechnik AG; Flawil, Switzerland) and the resulting sample applied to a semi prep Jupiter Proteo (10×250 mm, […], 90 Å) Reversed Phase HPLC column running a 30-50% acetonitrile 0.1% TFA gradient at 2.5 mL/min where buffer A was 0.1% TFA and buffer B was 100% acetonitrile 0.1% TFA. […] Bioactive fractions were pooled and lyophilized using a Genevac lyophiliser (Suffolk, UK).

Turning to nisin G, in the experiment on F. nucleatum DSM15643, the “Zone of inhibition (area of zone of inhibition minus area of well)” value is 37.7 mm^2. Further, the “Antimicrobial activity, comparison of size of zones of inhibition (in words)” value in the experiment on L. bulgaricus DPC5383 is “less than nisin A”. Turning to “nisin A (ITSISLCTPGCKTGALMGCNMKTATCHCSIHVSK; also: lantibiotic, modified residues and rings not given here; UniProt P13068 24-57, looked up) [prototypical broad spectrum lantibiotic, purified from nisinA®P (Handary) by reversed phase HPLC, reference compound]”, the “Zone of inhibition (area of zone of inhibition minus area of well)” value in the experiment with F. nucleatum DSM15643 is listed as 395.8 mm^2.
